Where two headings read alike, the source gives them in different places.
Key:
[1] = Solubility of the free base of the compound of Formula I in solvents and mixed solvent systems; format: physicochemical; settings: for solubility: thermodynamic from solid
Description: The solubility was also determined in mixed solvent systems such as DCM/EtOH, DMSO/EtOH, DMSO/water, THF/EtOH, and THF/water.
The solubility studies were conducted as follows. […] The samples were then heated to 60° C. Should the solids dissolve on heating, more freebase was added in 3 to 5 mg portions.

[2] = Screen of conditions for sulfuric and phosphoric acid salts of Formula I (freebase solubility observations); format: physicochemical; settings: 25° C.
Description: The use of sulfuric acid in 4:1 DCM/EtOH provided a filterable solid after stirring overnight.

## COc1ccc(CN2CCN(c3ccc(-c4cc(-c5cnn(C)c5)cn5ncc(C#N)c45)cn3)CC2)cn1 [freebase of the compound of Formula I, 4-(6-(4-((6-methoxypyridin-3-yl)methyl)piperazin-1-yl)pyridin-3-yl)-6-(1-methyl-1H-pyrazol-4-yl)pyrazolo[1,5-a]pyridine-3-carbonitrile]
[1]; 0.1M HCl, 25 °C, simulated gastric fluid, read-out: Solubility at 25° C.
  solubility: 1500 µg/mL
[1]; 10% THF in H2O, 25 °C, aqueous with cosolvent or surfactant or cyclodextrin, title: THF/H2O at room temperature, head: % THF in EtOH = 10, read-out: Solubility
  solubility: 150 µg/mL
[1]; 20% THF in H2O, 25 °C, aqueous with cosolvent or surfactant or cyclodextrin, title: THF/H2O at room temperature, head: % THF in EtOH = 20, read-out: Solubility
  solubility: 130 µg/mL
[1]; 25 °C, aqueous with cosolvent or surfactant or cyclodextrin, 20% DMSO in H2O, room temperature, read-out: Solubility
  solubility: 80 µg/mL
[1]; 25 °C, aqueous with cosolvent or surfactant or cyclodextrin, 30% DMSO in H2O, room temperature, read-out: Solubility
  solubility: 90 µg/mL
[1]; 25 °C, aqueous with cosolvent or surfactant or cyclodextrin, 40% DMSO in H2O, room temperature, read-out: Solubility
  solubility: 100 µg/mL
[1]; 25 °C, aqueous with cosolvent or surfactant or cyclodextrin, 50% DMSO in H2O, room temperature, read-out: Solubility
  solubility: 90 µg/mL
[1]; 25 °C, aqueous with cosolvent or surfactant or cyclodextrin, 60% DMSO in H2O, room temperature, read-out: Solubility
  solubility: 100 µg/mL
[1]; 25 °C, aqueous with cosolvent or surfactant or cyclodextrin, 70% DMSO in H2O, room temperature, read-out: Solubility
  solubility: 150 µg/mL
[1]; 25 °C, aqueous with cosolvent or surfactant or cyclodextrin, 80% DMSO in H2O, room temperature, read-out: Solubility
  solubility: 350 µg/mL
[1]; 25 °C, aqueous with cosolvent or surfactant or cyclodextrin, 90% DMSO in H2O, room temperature, read-out: Solubility
  solubility: 1520 µg/mL
[1]; 25 °C, organic solvent or mixture, 20% DCM in EtOH, room temperature, read-out: Solubility
  solubility: 260 µg/mL
[1]; 25 °C, organic solvent or mixture, 20% DMSO in EtOH, room temperature, read-out: Solubility
  solubility: 180 µg/mL
[1]; 25 °C, organic solvent or mixture, 20% THF in EtOH, room temperature, read-out: Solubility
  solubility: 340 µg/mL
[1]; 25 °C, organic solvent or mixture, 30% DCM in EtOH, room temperature, read-out: Solubility
  solubility: 870 µg/mL
[1]; 25 °C, organic solvent or mixture, 30% DMSO in EtOH, room temperature, read-out: Solubility
  solubility: 390 µg/mL
[1]; 25 °C, organic solvent or mixture, 30% THF in EtOH, room temperature, read-out: Solubility
  solubility: 550 µg/mL
[1]; 25 °C, organic solvent or mixture, 40% DCM in EtOH, room temperature, read-out: Solubility
  solubility: 2530 µg/mL
[1]; 25 °C, organic solvent or mixture, 40% DMSO in EtOH, room temperature, read-out: Solubility
  solubility: 610 µg/mL
[1]; 25 °C, organic solvent or mixture, 40% THF in EtOH, room temperature, read-out: Solubility
  solubility: 820 µg/mL
[1]; 25 °C, organic solvent or mixture, 50% DCM in EtOH, room temperature, read-out: Solubility
  solubility: 7420 µg/mL
[1]; 25 °C, organic solvent or mixture, 50% DMSO in EtOH, room temperature, read-out: Solubility
  solubility: 1140 µg/mL
[1]; 25 °C, organic solvent or mixture, 50% THF in EtOH, room temperature, read-out: Solubility
  solubility: 1380 µg/mL
[1]; 25 °C, organic solvent or mixture, 60% DCM in EtOH, room temperature, read-out: Solubility
  solubility: 16600 µg/mL
[1]; 25 °C, organic solvent or mixture, 60% DMSO in EtOH, room temperature, read-out: Solubility
  solubility: 1800 µg/mL
[1]; 25 °C, organic solvent or mixture, 60% THF in EtOH, room temperature, read-out: Solubility
  solubility: 1970 µg/mL
[1]; 25 °C, organic solvent or mixture, 70% DCM in EtOH, room temperature, read-out: Solubility
  solubility: 22700 µg/mL
[1]; 25 °C, organic solvent or mixture, 70% DMSO in EtOH, room temperature, read-out: Solubility
  solubility: 2570 µg/mL
[1]; 25 °C, organic solvent or mixture, 70% THF in EtOH, room temperature, read-out: Solubility
  solubility: 2510 µg/mL
[1]; 25 °C, organic solvent or mixture, 80% DCM in EtOH, room temperature, read-out: Solubility
  solubility: 29000 µg/mL
[1]; 25 °C, organic solvent or mixture, 80% DMSO in EtOH, room temperature, read-out: Solubility
  solubility: 4280 µg/mL
[1]; 25 °C, organic solvent or mixture, 80% THF in EtOH, room temperature, read-out: Solubility
  solubility: 3090 µg/mL
[1]; 25 °C, organic solvent or mixture, 90% DCM in EtOH, room temperature, read-out: Solubility
  solubility: 34200 µg/mL
[1]; 25 °C, organic solvent or mixture, 90% DMSO in EtOH, room temperature, read-out: Solubility
  solubility: 4440 µg/mL
[1]; 25 °C, organic solvent or mixture, 90% THF in EtOH, room temperature, read-out: Solubility
  solubility: 3180 µg/mL
[1]; 25 °C, organic solvent or mixture, 100% DMSO in EtOH, room temperature, read-out: Solubility
  solubility: 6960 µg/mL
[1]; 30% THF in H2O, 25 °C, aqueous with cosolvent or surfactant or cyclodextrin, title: THF/H2O at room temperature, head: % THF in EtOH = 30, read-out: Solubility
  solubility: 350 µg/mL
[1]; 40% THF in H2O, 25 °C, aqueous with cosolvent or surfactant or cyclodextrin, title: THF/H2O at room temperature, head: % THF in EtOH = 40, read-out: Solubility
  solubility: 1360 µg/mL
[1]; 50% THF in H2O, 25 °C, aqueous with cosolvent or surfactant or cyclodextrin, title: THF/H2O at room temperature, head: % THF in EtOH = 50, read-out: Solubility
  solubility: 2500 µg/mL
[1]; 60% THF in H2O, 25 °C, aqueous with cosolvent or surfactant or cyclodextrin, title: THF/H2O at room temperature, head: % THF in EtOH = 60, read-out: Solubility
  solubility: 3760 µg/mL
[1]; 70% THF in H2O, 25 °C, aqueous with cosolvent or surfactant or cyclodextrin, title: THF/H2O at room temperature, head: % THF in EtOH = 70, read-out: Solubility
  solubility: 6170 µg/mL
[1]; 80% THF in H2O, 25 °C, aqueous with cosolvent or surfactant or cyclodextrin, title: THF/H2O at room temperature, head: % THF in EtOH = 80, read-out: Solubility
  solubility: 6650 µg/mL
[1]; 90% THF in H2O, 25 °C, aqueous with cosolvent or surfactant or cyclodextrin, title: THF/H2O at room temperature, head: % THF in EtOH = 90, read-out: Solubility
  solubility: 6560 µg/mL
[1]; 100% DMSO (DMSO/H2O series), 25 °C, organic solvent or mixture, 100% DMSO in H2O, room temperature, read-out: Solubility
  solubility: 6960 µg/mL
[1]; 100% THF (THF/EtOH series), 25 °C, organic solvent or mixture, 100% THF in EtOH, room temperature, read-out: Solubility
  solubility: 2590 µg/mL
[1]; 100% THF (THF/H2O series), 25 °C, organic solvent or mixture, title: THF/H2O at room temperature, head: % THF in EtOH = 100, read-out: Solubility
  solubility: 2590 µg/mL
[1]; ACN
  Solids dissolve at 60° C.?: No
[1]; ACN, 25 °C, organic solvent or mixture, read-out: Solubility at 25° C.
  solubility: 330 µg/mL
[1]; DCE, 25 °C, organic solvent or mixture, read-out: Solubility at 25° C.
  solubility: 4600 µg/mL
[1]; EtOAc
  Solids dissolve at 60° C.?: No
[1]; EtOAc, 25 °C, organic solvent or mixture, read-out: Solubility at 25° C.
  solubility: 360 µg/mL
[1]; EtOH
  Solids dissolve at 60° C.?: No
[1]; EtOH, 25 °C, organic solvent or mixture, read-out: Solubility at 25° C.
  solubility: 40 µg/mL
[1]; IPA
  Solids dissolve at 60° C.?: No
[1]; MEK
  Solids dissolve at 60° C.?: No
[1]; MEK, 25 °C, organic solvent or mixture, read-out: Solubility at 25° C.
  solubility: 690 µg/mL
[1]; MeOH
  Solids dissolve at 60° C.?: No
[1]; MeOH, 25 °C, organic solvent or mixture, read-out: Solubility at 25° C.
  solubility: 70 µg/mL
[1]; THF
  Solids dissolve at 60° C.?: Yes
[1]; THF (1 mL), 60° C., solution turned milky at 13 mg
  freebase dissolved in THF at 60° C.: 10 to 13 mg
[1]; acetone
  Solids dissolve at 60° C.?: No
[1]; acetone, 25 °C, organic solvent or mixture, read-out: Solubility at 25° C.
  solubility: 440 µg/mL
[1]; aqueous with cosolvent or surfactant or cyclodextrin, 10% DMSO in H2O, room temperature, read-out: Solubility
  solubility: 90 µg/mL
[1]; iPAc
  Solids dissolve at 60° C.?: No
[1]; iPAc, 25 °C, organic solvent or mixture, read-out: Solubility at 25° C.
  solubility: 250 µg/mL
[1]; organic solvent or mixture, 0% DCM in EtOH, room temperature, read-out: Solubility
  solubility: 50 µg/mL
[1]; organic solvent or mixture, 0% DMSO in EtOH, room temperature, read-out: Solubility
  solubility: 50 µg/mL
[1]; organic solvent or mixture, 10% DCM in EtOH, room temperature, read-out: Solubility
  solubility: 60 µg/mL
[1]; organic solvent or mixture, 10% DMSO in EtOH, room temperature, read-out: Solubility
  solubility: 90 µg/mL
[1]; organic solvent or mixture, 10% THF in EtOH, room temperature, read-out: Solubility
  solubility: 290 µg/mL
[1]; organic solvent or mixture, 100% DCM in EtOH, room temperature, read-out: Solubility
  solubility: 17300 µg/mL
[1]; organic solvent or mixture, DMA, 60° C., read-out: Solubility at 60° C.
  solubility: > 40000 µg/mL
[1]; organic solvent or mixture, THF, 60° C., read-out: Solubility at 60° C.
  solubility: 10200 to 13000 µg/mL
[1]; toluene
  Solids dissolve at 60° C.?: No
[1]; toluene, 25 °C, organic solvent or mixture, read-out: Solubility at 25° C.
  solubility: 350 µg/mL
[1]; water, 25 °C, water, read-out: Solubility at 25° C.
  solubility: 70 µg/mL
[2]; 4:1 DCM/EtOH (100 vol)
  Solubility (in words): dissolve
[2]; THF, EtOH, and 1:1 DCM/EtOH (100 vol)
  Solubility (in words): limited solubility

Source: US10584124B2, “Crystalline forms” (Array BioPharma Inc., priority 2017, dated 2020)
